This note sets out measurements from ChEMBL document CHEMBL2311509, “Synthesis and antiproliferative evaluation of 3-phenylquinolinylchalcone derivatives against non-small cell lung cancers and breast cancers” (Eur J Med Chem, 2013).

pIC50: −log10 of the molar value.

What all share (format): functional, cell-based
Test [1] can be described thus: Antiproliferative activity against human H184B5F5/M10 cells after 72 hrs by XTT assay. Particulars: H184B5F5/M10, 72 h.
Test [2] in a line: Antiproliferative activity against human H460 cells after 72 hrs by XTT assay. Particulars: NCI-H460, 72 h.
For another test, the system named is SK-BR-3. Put plainly: Antiproliferative activity against human SKBR3 cells after 72 hrs by XTT assay. Particulars: SK-BR-3, 72 h.
For a further test, the system named is MCF7. Put plainly: Antiproliferative activity against human MCF7 cells after 72 hrs by XTT assay. Particulars: MCF7, 72 h.
Another test deals with MDA-MB-231. As to the kind of experiment: Antiproliferative activity against human MDA-MB-231 cells after 72 hrs by XTT assay. Particulars: MDA-MB-231, 72 h.
In the next test the test system is A549. As to the kind of experiment: Antiproliferative activity against human A549 cells after 72 hrs by XTT assay. Particulars: A549, 72 h.
Test [3] in a line: Antiproliferative activity against human H1299 cells after 72 hrs by XTT assay. Particulars: NCI-H1299, 72 h.

For `COc1ccc(-c2cc3ccccc3nc2/C=C/C(=O)c2cnc(N)nc2C)cc1`, the pIC50 (in test [1]; in test [2]; in the test on SK-BR-3; in the test with MCF7; in the test on MDA-MB-231; in the test with A549) was below 5.00 throughout. For the same compound, the pIC50 in test [3] was below 5.00.

For `COc1ccc(-c2cc3ccccc3nc2/C=C/C(=O)c2ccc(OC)c(OC)c2)cc1`, the pIC50 was 5.14 in test [1]; 5.12 in test [2]; 5.49 in the test on SK-BR-3; 5.22 with MCF7; 5.32 in the test on MDA-MB-231; 5.05 in the test with A549. This compound gave a pIC50 in test [3] of 5.98.

In the case of `COc1ccc(-c2cc3ccccc3nc2/C=C/C(=O)c2sccc2N)cc1`, the pIC50 (in test [1]; in test [2]; in the test with SK-BR-3; with MCF7; in the test with MDA-MB-231; with A549) was below 5.00 throughout. Also, the pIC50 in test [3] was below 5.00.

With `COc1ccc(-c2cc3ccccc3nc2/C=C/C(=O)c2ccccc2)cc1`, the pIC50 was 5.07 in test [1]; 5.18 in test [2]; 6.15 in the test with SK-BR-3; 5.39 in the test on MCF7; 6.07 in the test on MDA-MB-231; 5.13 in the test with A549. The compound also showed a pIC50 in test [3] of 5.85.

In the case of `COc1ccc(-c2cc3ccccc3nc2C=O)cc1`, the pIC50 (in test [1]; in test [2]; in the test on SK-BR-3; in the test on MCF7; in the test on MDA-MB-231; with A549) was below 5.00 throughout. This compound gave a pIC50 in test [3] below 5.00.

In the case of `CC[C@@]1(O)C(=O)OCc2c1cc1n(c2=O)Cc2cc3c(CN(C)C)c(O)ccc3nc2-1` [TOPOTECAN], the pIC50 is below 5.00 in test [1]; 5.14 in test [2]; 5.05 with SK-BR-3; 5.22 in the test on MCF7; above 7.00 in the test with MDA-MB-231; 5.22 in test [3].

`COc1ccc(-c2cc3ccccc3nc2/C=C/C(=O)c2ccc[nH]2)cc1`: the pIC50 (in test [1]; in test [2]; with SK-BR-3; in the test with MCF7; with MDA-MB-231; with A549) was below 5.00 each time. The pIC50 in test [3] is below 5.00.

For `COc1ccc(-c2cc3ccccc3nc2/C=C/C(=O)c2c(OC)cccc2OC)cc1`, the pIC50 in test [1] is 5.35; in test [2], 5.18; in the test on SK-BR-3 it was 5.42; with MCF7, 5.34; in the test on MDA-MB-231, 5.25; in the test with A549, 5.13. Further, the pIC50 in test [3] is 5.33.

As for `COc1ccc(-c2cc3ccccc3nc2/C=C/C(=O)c2cccs2)cc1`, the pIC50 is 5.15 in test [1]; 5.26 in test [2]; 6.10 in the test with SK-BR-3; 5.99 in the test with MCF7; 6.39 in the test on MDA-MB-231; 6.04 in the test with A549. The pIC50 in test [3] was 6.14.

For the compound `COc1ccc(-c2cc3ccccc3nc2/C=C/C(=O)c2c[nH]c3ccccc23)cc1`, the pIC50 was below 5.00 in test [1]; 5.10 in test [2]; 5.46 with SK-BR-3; below 5.00 with MCF7; below 5.00 with MDA-MB-231; below 5.00 in the test on A549. The compound further had a pIC50 in test [3] below 5.00.

Turning to `COc1ccc(-c2cc3ccccc3nc2/C=C/C(=O)c2ccc(OC)cc2OC)cc1`, the pIC50 in test [1] is 5.21; in test [2], 5.15; in the test on SK-BR-3, 5.65; in the test with MCF7, 5.20; in the test with MDA-MB-231, 5.49; in the test with A549, 5.10. Besides, the pIC50 in test [3] was 5.42.

With `COc1ccc(-c2cc3ccccc3nc2/C=C/C(=O)c2cc(OC)cc(OC)c2)cc1`, the pIC50 was 5.18 in test [1]; 5.12 in test [2]; 6.33 with SK-BR-3; 5.49 with MCF7; 6.04 in the test on MDA-MB-231; 5.02 in the test with A549. The compound further had a pIC50 in test [3] of 6.03.

For the compound `COc1ccc(-c2cc3ccccc3nc2/C=C/C(=O)c2ccc(N)cc2)cc1`, the pIC50 was 5.03 in test [1]; 5.13 in test [2]; 5.07 in the test with SK-BR-3; 5.16 with MCF7; 5.12 in the test on MDA-MB-231; 5.12 with A549. The pIC50 in test [3] was 5.19.

On to `COc1ccc(-c2cc3ccccc3nc2/C=C/C(=O)c2ccco2)cc1`, for which the pIC50 is 5.20 in test [1]; 5.19 in test [2]; 6.19 in the test on SK-BR-3; 6.15 in the test on MCF7; 6.20 in the test with MDA-MB-231; 5.21 in the test on A549. Further, the pIC50 in test [3] was 6.14.

For the compound `COc1ccc(-c2cc3ccccc3nc2/C=C/C(=O)c2ccccn2)cc1`, the pIC50 was 5.38 in test [1]; 5.20 in test [2]; 6.43 in the test on SK-BR-3; 6.09 in the test on MCF7; 6.13 in the test on MDA-MB-231; 5.21 in the test on A549. This compound gave a pIC50 in test [3] of 6.18.

For `COc1ccc(C(=O)/C=C/c2nc3ccccc3cc2-c2ccc(OC)cc2)cc1`, the pIC50 was below 5.00 in test [1]; below 5.00 in test [2]; 5.03 with SK-BR-3; 5.13 in the test with MCF7; 5.12 in the test on MDA-MB-231; 5.07 with A549. For the same compound, the negative logarithm of the IC50 (pIC50) in test [3] was 5.19.

As for `COc1ccc(-c2cc3ccccc3nc2/C=C/C(=O)c2ccc(F)cc2)cc1`, the pIC50 was below 5.00 in test [1]; 5.16 in test [2]; 6.09 in the test on SK-BR-3; 5.26 in the test with MCF7; 6.08 with MDA-MB-231; 5.08 in the test on A549. Further, in test [3], the pIC50 is 6.09.

For `COc1ccc(-c2cc3ccccc3nc2/C=C/C(=O)c2ccsc2)cc1`, the pIC50 is 5.19 in test [1]; 5.15 in test [2]; 6.18 in the test on SK-BR-3; 5.22 in the test with MCF7; 5.97 in the test with MDA-MB-231; 5.09 with A549. Besides, in test [3], the pIC50 was 5.91.

As to `COc1ccc(-c2cc3ccccc3nc2/C=C/C(=O)c2ccc([N+](=O)[O-])cc2)cc1`, the pIC50 in test [1] was 5.21; in test [2], 5.19; in the test with SK-BR-3, 6.23; in the test with MCF7, 5.39; in the test with MDA-MB-231, 6.08; in the test with A549 it was 5.20. Further, the pIC50 in test [3] is 6.11.

As to `COc1ccc(-c2cc3ccccc3nc2/C=C/C(=O)c2ccc(O)cc2)cc1`, the pIC50 is 5.24 in test [1]; 5.16 in test [2]; 5.41 in the test on SK-BR-3; 5.17 with MCF7; 5.20 in the test with MDA-MB-231; 5.13 in the test on A549. The pIC50 in test [3] is 5.05.
